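Tested at 5 concentrations; 48 h exposure; 96-well plates; endpoints linearly interpolated, else capped at highest concentration. The concentration for full growth arrest is given as TGI.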
Experiments:
Experiment in all cases: NCI tumour cell line growth inhibition, 48 h
[1] = system: EKVX NSCLC
[2] = system: HL-60(TB) leukemia
[3] = system: ACHN renal
[4] = system: RXF-631 renal
[5] = system: NCI-H226 lung
[6] = system: IGROV1 ovarian
[7] = system: OVCAR-3 ovarian
[8] = system: M14 melanoma
[9] = system: HCC-2998 colon
[10] = system: SK-OV-3 ovarian
[11] = system: SN12C renal
[12] = system: LXFL 529 NSCLC
[13] = system: OVCAR-4 ovarian
[14] = system: RPMI-8226 leukemia
[15] = system: DMS 273 small cell lung
[16] = system: TK-10 renal
[17] = system: HOP-62 NSCLC
[18] = system: SNB-75 CNS
[19] = system: 786-0 renal
[20] = system: OVCAR-8 ovarian
[21] = system: UACC-62 melanoma
[22] = system: K-562 leukemia
[23] = system: KM12 colon
[24] = system: UO-31 renal
[25] = system: SNB-19 CNS
[26] = system: SF-268 CNS
[27] = system: MOLT-4 leukemia
[28] = system: SNB-78 CNS
[29] = system: DLD-1 colon
[30] = system: COLO 205 colon
[31] = system: KM20L2 colon
[32] = system: A498 renal
[33] = system: UACC-257 melanoma
[34] = system: HOP-92 NSCLC
[35] = system: HT29 colon
[36] = system: SK-MEL-28 melanoma
[37] = system: RXF 393 renal
[38] = system: M19-MEL melanoma
[39] = system: NCI-H460 lung
[40] = system: SF-295 CNS
[41] = system: U251 CNS
[42] = system: HCT-116 colon
[43] = system: SW-620 colon
[44] = system: LOX IMVI melanoma
[45] = system: SF-539 CNS
[46] = system: A549 NSCLC
[47] = system: NCI-H23 lung
[48] = system: MALME-3M melanoma
[49] = system: SK-MEL-2 melanoma
[50] = system: DMS 114 small cell lung
[51] = system: HCT-15 colon
[52] = system: CCRF-CEM leukemia
[53] = system: CAKI-1 renal
[54] = system: NCI-H522 lung
[55] = system: SK-MEL-5 melanoma
[56] = system: SR leukemia
[57] = system: HOP-18 NSCLC

Measured: TGI

COc1ccc(NC(=O)C(=O)C2NC(=S)NC2=O)c(OC)c1 (centres undefined)
not listed: [52] | [53] | [54] | [55] | [56] | [57]
> 100 µM: all other assays above

CC(C)(C)OC(=O)N1N=NC2C3CC(=O)C(O3)C21 (centres undefined)
not listed: [2] | [5] | [9] | [10] | [13] | [17] | [18] | [21] | [23] | [25] | [26] | [28] | [30] | [33] | [35] | [36] | [38] | [41] | [42] | [44] | [47] | [49] | [50] | [51]
> 100 µM: all other assays above

Reference: PubChem BioAssay (NCI)
